Measured values reported in US7872041B2, “Use of rotigotine for treating and preventing Parkinson's plus syndrome” (priority 2004, dated 2011).

What was measured:
[1] = transdermal administration, WO 02/089777 and other authors; cited from earlier work
[2] = tested on: MPTP mouse model; assay: Acute MPTP model, FluoroJade staining of degenerating neurons; format: in vivo, mice; conditions: for Number of degenerating neurons: FluoroJade staining
Method: The results set forth below in Table 2 indicate the number of acutely degenerating neurons in the MPTP mouse model shown with FluoroJade staining with and without treatment with a single administration of rotigotine:
To induce intoxication, mice were administered 80 mg/kg of the neurotoxin 1-methyl-4-phenyl-1,2,3,6-tetrahydro-pyridine (MPTP) (in portions of 20 mg/kg at two-hourly intervals) resulting in the degeneration of approximately 50-60% of the neurons in the substantia nigra. Approximately 16 hours previously, rotigotine was added in doses of 0.3, 1 or 3 mg/kg respectively as a so-called ‘slow-release formulation’ (see embodiment 2). Diffusion and absorption latencies mean that rotigotine is optimally available when MPTP is added. Animals that were only given the vehicle solution (see embodiment 2 without rotigotine HCl) served as controls. After 24 hours, the animals were sacrificed and the brains fixed. The brain sections were stained with FluoroJade for the identification of degenerating cells. Immunohistochemical marking of the tyrosine hydroxylase was used to identify dopaminergic neurons. […] The number of the degenerating neurons was approximately 50% lower after the application of rotigotine, which is further confirmation of the neuroprotective properties of the substance (Table 2).

[3] = tested on: MPTP model in monkeys (macaques); assay: Progressive MPTP primate model, pilot study; format: in vivo
Method: In the MPTP model used, which reflects the progressive course of dopaminergic cell destruction in primates, monkeys (macaques) were injected with subthreshold toxic doses of MPTP over several days. The parkinsonian symptoms developed in the model over a period of approximately 2 weeks. As soon as a specific degree of damage was reached, daily injections of rotigotine were provided in a formulation giving rise to a continuous plasma level over a 24 hour period. The injections of MPTP were stopped as soon as the motor activity in the controls had reduced by a specific degree (approximately 5 days later). The animals' behavior was evaluated every day. […] At the end of rotigotine application or at the end of the wash-out phase, in each case one group of animals was sacrificed and the condition of the basal ganglia investigated histologically and biochemically. The density of the nerve endings in the striatum of the treated animals was much higher than it was in the untreated animals.

[4] = tested on: MPTP mouse model; assay: Subacute MPTP model, dopamine transporter density in the striatum; format: in vivo, mice
Method: To induce intoxication, mice were administered 80 mg/kg of the neurotoxin 1-methyl-4-phenyl-1,2,3,6-tetrahydro-pyridine (MPTP) (in portions of 20 mg/kg in two-hourly intervals, groups 3-6 in FIGS. 1 and 2) resulting in the degeneration of about 50-60% of the neurons of the substantia nigra (maximum degeneration in group 3 in FIGS. 1 and 2). Rotigotine was administered daily in doses of 0.3, 1 or 3 mg/kg respectively over 7 days as a so-called ‘slow-release formulation’ (see embodiment 2) (groups 4-6 in FIGS. 1 and 2). A group of MPTP-treated animals (group 3) was given rotigotine-vehicle solution (see embodiment 2 without rotigotine HCl) and served as a reference. The controls were groups 1, 2 and 7, whereby group 1 is not given any treatment, group 2 is treated with the vehicle-solutions for MPTP and rotigotine, and group 7 was exclusively given rotigotine. The animals were sacrificed on day 8, their brains removed and frozen. Frozen sections were incubated with 100 pm[^125I] PE21 ([^125I]-(E)-N(3-iodoprop-2-enyl)-2β-carboxymethyl-3β-(4′-methylphenyl)-nortropane) in a phosphate buffer, pH 7.4 in order to mark the quantity of dopamine transporters still present in the striatum as an indicator of the quantity of functioning nerve endings. […] This is clear evidence of the neuroprotective properties of the substance (FIG. 1 and 2).

CCCN(CCc1cccs1)[C@H]1CCc2c(O)cccc2C1 [rotigotine, (−)5,6,7 ,8-tetrahydro-6-[propyl[2-(2-thienyl)ethyl]amino]-1-naphthol]
UPDRS scores [1]: improvement
Number of degenerating neurons ([2]; MPTP intoxication + rotigotine 0.3 mg/kg, single administration): 66.7
Number of degenerating neurons ([2]; MPTP intoxication + rotigotine 1.0 mg/kg, single administration): 76.8
Number of degenerating neurons ([2]; MPTP intoxication + rotigotine 3.0 mg/kg, single administration): 34.9
Number of degenerating neurons ([2]; MPTP-vehicle + rotigotine 3.0 mg/kg (no MPTP)): 3.8
Number of degenerating neurons lower after application of rotigotine ([2]; acute MPTP model, versus MPTP without rotigotine): approximately 50%
Number of degenerating neurons in the mesencephalon ([2]; acute phase after MPTP, after administration of rotigotine): reduced
Staining of the tyrosine hydroxylase (dopaminergic neurons) ([2]; treated versus untreated animals, 24 hours after MPTP): did not identify any differences between the treated and untreated animals
Content of preproenkephalin ([3]; after the treatment and after the wash-out phase): tendency toward normalization
Density of the nerve endings in the striatum ([3]; treated versus untreated animals): much higher
Motor activity of the animals ([3]; under treatment with daily injections and in the following wash-out phase): significantly improved
Survival of the neurons and the nerve endings ([4]; 0.3, 1 or 3 mg/kg daily over 7 days, slow-release formulation): improves the survival of the neurons and the nerve endings in relation to the dose
Dopaminergic innervation of the striatum (density of the dopamine transporter) ([4]; subacute phase after MPTP): virtually completely retained or restored
